Reference: patent US12618845B2, “Methods and compositions for protein sequencing” (Quantum-Si Incorporated, priority 2018, dated 2026)
“Also recorded” adds a separate entry of the source. Square brackets hold non-standard residues; d marks the D form. Ends that are not written are not given here. Lys(N3) = [N-]=[N+]=NCCCC[C@H](N)C(=O)O

Columns and labels:
[1] = test system: proline iminopeptidase (PIP); assay: Terminal amino acid cleavage of peptide-linker conjugates monitored by LCMS, PIP; assay type: biochemical; settings: incubated with PIP
Experimental: (§1) The peptide-linker conjugates were evaluated for amino acid cleavage at peptide N-termini by N-terminal aminopeptidases (Table 6, below).
(§2) The peptide-linker conjugates shown in Table 6 were incubated with either proline iminopeptidase (“PIP”) or rat aminopeptidase N (“Rat APN”), and peptide cleavage was monitored by LCMS. All other cleavage reactions were measured in a similar manner.

[2] = test system: amino acid at a terminal position of a polypeptide; settings: amino acid identity at a terminal position of a polypeptide; phospho-Y also at an internal position; cited from earlier work
[3] = biological target: T1, rat aminopeptidase N (Rat APN) (Rattus norvegicus, UniProt P15684); assay: Terminal amino acid cleavage of peptide-linker conjugates monitored by LCMS, Rat APN; assay type: biochemical; settings: incubated with Rat APN
T1 sequence (P15684 1-965): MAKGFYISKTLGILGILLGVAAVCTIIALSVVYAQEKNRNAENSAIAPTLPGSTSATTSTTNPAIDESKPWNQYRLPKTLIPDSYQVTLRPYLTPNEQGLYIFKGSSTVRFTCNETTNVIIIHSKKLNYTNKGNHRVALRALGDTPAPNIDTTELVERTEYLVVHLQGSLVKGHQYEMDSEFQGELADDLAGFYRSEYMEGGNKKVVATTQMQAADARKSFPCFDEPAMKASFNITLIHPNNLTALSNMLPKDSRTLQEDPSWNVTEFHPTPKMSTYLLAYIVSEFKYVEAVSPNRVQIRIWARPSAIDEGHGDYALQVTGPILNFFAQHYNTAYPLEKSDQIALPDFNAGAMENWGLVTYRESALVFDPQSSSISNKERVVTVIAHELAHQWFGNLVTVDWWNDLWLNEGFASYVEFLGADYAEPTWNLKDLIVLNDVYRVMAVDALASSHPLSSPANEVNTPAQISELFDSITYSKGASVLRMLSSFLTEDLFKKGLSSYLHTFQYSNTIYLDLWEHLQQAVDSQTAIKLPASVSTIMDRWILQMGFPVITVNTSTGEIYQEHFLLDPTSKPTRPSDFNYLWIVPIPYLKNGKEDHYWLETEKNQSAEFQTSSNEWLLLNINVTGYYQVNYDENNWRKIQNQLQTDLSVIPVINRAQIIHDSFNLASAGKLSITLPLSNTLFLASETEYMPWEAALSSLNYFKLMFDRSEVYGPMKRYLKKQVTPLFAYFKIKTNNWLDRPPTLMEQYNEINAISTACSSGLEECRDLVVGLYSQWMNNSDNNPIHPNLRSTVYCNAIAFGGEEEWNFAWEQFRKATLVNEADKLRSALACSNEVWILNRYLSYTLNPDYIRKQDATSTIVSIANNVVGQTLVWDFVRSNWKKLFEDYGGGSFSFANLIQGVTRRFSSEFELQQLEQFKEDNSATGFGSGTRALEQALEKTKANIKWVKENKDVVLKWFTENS
Experimental: as §1, §2

DPDPDP{LYS(N3)} [Entry 9]
Cleaved by PIP [1]: Yes

H. sapiens p62 fragment 1-180: amino acid recognition protein, SEQ ID NO: 27
Binding Pref. [2]: K, R, H,; also recorded: W, F, Y

KPKPKP{LYS(N3)} [Entry 10]
Cleaved by PIP [1]: No

AAMAAM{LYS(N3)} [Entry 7]
Cleaved by Rat APN [3]: Yes

KKMKKM{LYS(N3)} [2] (KKMKKM[Lys(N3)]; also: oligo linker) [Entry 2, 71, positive class, oligo linker]
Cleaved by Rat APN [3]: No

H. sapiens p62 fragment 1-310: amino acid recognition protein, SEQ ID NO: 26
Binding Pref. [2]: K, R, H,; also recorded: W, F, Y

FPFPFP{LYS(N3)} [Entry 8]
Cleaved by PIP [1]: Yes

KKMKKM{LYS(N3)} [3] (KKMKKM[Lys(N3)]; also: oligo-PEG linker) [Entry 3, 71, positive class, oligo-PEG linker]
Cleaved by Rat APN [3]: No

FFMFFM{LYS(N3)} (FFMFFM[Lys(N3)]; also: oligo linker) [Entry 6, 73, aromatic class, oligo linker]
Cleaved by Rat APN [3]: Yes

KPKPKP{LYS(N3)} [Entry 11]
Cleaved by PIP [1]: Yes

H. sapiens p62 fragment 126-180: amino acid recognition protein, SEQ ID NO: 28
Binding Pref. [2]: K, R, H,; also recorded: W, F, Y

Rattus norvegicus p62 protein: amino acid recognition protein, SEQ ID NO: 30
Binding Pref. [2]: K, R, H,; also recorded: W, F, Y

KKMKKM{LYS(N3)} [4] (KKMKKM[Lys(N3)]; also: PEG4 linker) [Entry 4, 71, positive class, PEG4 linker]
Cleaved by Rat APN [3]: Yes

DDMDDM{LYS(N3)} [Entry 5]
Cleaved by Rat APN [3]: Yes

H. sapiens Src tyrosine kinase SH2 domain: amino acid recognition protein, SEQ ID NO: 24
Binding Pref. [2]: phospho-Y
